Measured values taken from US20250213614A1, “Modified RELA Protein for Inducing Interferon Expression and Engineered Immune Cells with Improved Interferon Expression” (Institut Curie, priority 2022, published 2025).

How the values were obtained:
Format in all cases: cell-based, human
[1] = tested on: CD4+ T cells; assay: IFN-I/III quantification (LEGENDplex) in CD4+ T cells, baseline or after STING stimulation; conditions: for IFN-I/III: over-expression of cGAS or NLS-cGAS in CD4+ T cells, data not shown
Procedure: (§1) Plasmapheresis blood pockets were obtained from healthy adult volunteers after informed consent from the EFS (Establishment of French blood collection). Peripheral blood mononuclear cells (PBMCs) were isolated using Ficoll-Paque Plus (GE-17144003) and left overnight at 4° C. in RPMI (Thermo fischer #61870-010) with 10% heat-decomplemented fetal bovine serum (FBS, Eurobio #CVFSVFO0-01). CD14+ cells were enriched by positive selection (Miltenyi #130-050-201), the CD14 negative fraction was subsequently used to isolate total CD4+ T cells by negative selection (Stem Cell #17952). CD14+ cells were cultured in RPMI containing 10% FBS, 5% Penicillin-Streptomycin (PS, Thermo Fisher #10378-016), 50 μg/ml Gentamicin (Thermo Fisher #15750-045) and 10 mM HEPES (Thermo Fisher #15630-056). CD14+ cells were differentiated ex vivo into MDDC by supplementing the culture media with 50 ng/ml IL-4 (Miltenyi #130-093-922) and 10 ng/ml GM-CSF (Miltenyi #130-093-867). MDDC were used for experiments 3 or 4 days following the start of the culture. CD14+ cells were differentiated ex vivo into macrophages by adding 50 ng/ml MCSF (Miltenyi #130-096-492) to the culture media containing RPMI with 1% PS, 5% FBS and 5% human serum (Sigma #H4522). MDM were used 7 days following culture. Freshly isolated CD4+ T cells were cultured in X-VIVO 15 (Lonza #BE02-060F) and activated using anti-CD3 and anti-CD28 Dynabeads (fisher scientific #10548353) at the ratio of 1:5 (bead:cell). 100 U/ml human IL-2 (Immunotools #11340027) was added to cultures 2 days following TCR stimulation and media with IL-2 was replenished every 48 hours. To assess proliferation, freshly isolated CD4+ T cells were stained with cell proliferation dye (thermo fischer #65-0840-85) prior to TCR stimulation.
(§2) CD14+ cells were plated at 1 million cells/ml and transduced with equal volumes of freshly harvested SIV-VLPs and pTRIP-SFFV vectors in the presence of 8 μg/ml protamine (Sigma #P4020). CD4+ T cells were transduced with lentivectors 24 hours post-TCR stimulation in 100 μl of cells (0.2 million cells) and 100 μl of freshly harvested lentivirus in the presence of 8 μg/ml protamine. T cells were spinoculated at 1200 g for 2 hours at 25° C. 0.5 million THP-1 cells in 500 μl media (RPMI 10% FBS 1% PS) were transduced with 500 μl freshly harvested lentivirus in the presence of 8 μg/ml protamine. 1 μg/ml Puromycin (Invivogen #ant-pr-1) was added 2 days post-transduction when cells were transduced with pLKO.1-puro plasmid.
For stimulation of STING by extracellular ligands, 2.5 μg of ADUS100 (invivogen #tlrl-nacda2r-01) or 2′3′-cGAMP (cGAMP, invivogen #tlrl-nacga23-02) was added to 100,000 cells in 100 μl media either on freshly isolated primary cells or 3-4 days post differentiation for MDDC and 3 days post-TCR stimulation for CD4+ T cells. Cells and supernatant were harvested 18-24 hours post stimulation. For delivery of STING ligands after permeabilization, T cells were used 3 or 4 days post TCR stimulation and MDDC were used 3-4 days following differentiation. 150,000 cells were plated in round bottom 96-well plate. Media was removed by centrifugation and 20 μl 2× permeabilization buffer (100 mM HEPES, 200 mM KCl, 6 mM MgCl2, 0.2 mM DTT, 170 mM Sucrose, 2 mM ATP, 2 mM GTP, 0.4% bovine serum albumin (BSA), 20 μg/ml digitonin) and 20 μl cGAMP (12 μg/ml) was added to cells. 18 to 20 hours following stimulation supernatants and cells were harvested. Cells were stained with a fixable viability dye (Invitrogen #65-0865-14) and acquired on a FACSVerse (BD). […]
Where indicated, cells were treated with 5-Azacytidine (5AZA, Sigma #A2385) 48 hours prior to cGAMP stimulation. Fresh 5AZA was added daily to cells, and media was replenished with 5AZA following cGAMP stimulation. 100 nM Trichostatin A (TSA) (sigma #T1952) was added to cells following cGAMP stimulation and left overnight. […]

[2] = tested on: STING, TBK1, IRF3, RELA, IRF7; assay: Western blot of key signaling proteins involved in STING signaling; conditions: CD4+ T cells treated with IFNα2a 1000 U/ml, FIG. 4B
Procedure: 0.5 million cells were lysed for 30 minutes on ice in 50 μl RIPA buffer (50 mM Tris HCl, 150 mM NaCl, 0.1% SDS, 0.5% DOC, 1% NP-40) with Protease inhibitor (Roche #1187358001). To evaluate, phospho-proteins 50 mM NaF and 1 mM sodium orthovanadate were added to the lysis buffer. Protein lysates were cleared by centrifugation at 12,000 g for 10 to 12 minutes at 4° C. 10 μl of 6× Laemmli buffer (fisher scientific #J61337) was added to 50 μl protein lysates and samples were boiled at 95° C. for 15 minutes. Protein samples were resolved on 4%-20% Biorad precast SDS-PAGE gels (#5671125) and transferred onto PVDF membranes (BioRad #1704157). Membranes were blocked in 5% non-fat dry milk in PBS 0.1% tween or in TBS 5% BSA 0.1% Tween to detect phosphorylated proteins. Primary antibodies were used at 1:1000:phospho-STING (clone-D7C3S), STING (clone-D2P2F), serine 172 phospho-TBK1 (clone-D52C2), TBK1 (clone-D11B4), serine 396 phospho IRF3 (clone-D6O1M), IRF3 (clone-D83B9), RELA (clone-C22B4), IRF7 (clone-12G9A36), cGAS (clone-D1 D3G), Actin (clone-C4), Sendai viral proteins (Biozol #MBL-PD029). Secondary anti-rabbit or anti-mouse antibody were used at 1:10,000 (santa cruz #sc-2357, #sc-516102). ECL signal (Biorad #1705061 and #1705062) was recorded on a ChemiDoc Touch Biorad Imager. Data was analyzed and quantified with Image Lab software (Biorad). In figures, dotted lines indicate reordering of lanes from a single original membrane for visualization purpose.

[3] = tested on: MDDC; assay: IFN-I/III quantification (LEGENDplex) in MDDC after STING stimulation
Procedure: as §1, §2
For stimulation of STING by extracellular ligands, 2.5 μg of ADUS100 (invivogen #tlrl-nacda2r-01) or 2′3′-cGAMP (cGAMP, invivogen #tlrl-nacga23-02) was added to 100,000 cells in 100 μl media either on freshly isolated primary cells or 3-4 days post differentiation for MDDC and 3 days post-TCR stimulation for CD4+ T cells. Cells and supernatant were harvested 18-24 hours post stimulation. For delivery of STING ligands after permeabilization, T cells were used 3 or 4 days post TCR stimulation and MDDC were used 3-4 days following differentiation. 150,000 cells were plated in round bottom 96-well plate. Media was removed by centrifugation and 20 μl 2× permeabilization buffer (100 mM HEPES, 200 mM KCl, 6 mM MgCl2, 0.2 mM DTT, 170 mM Sucrose, 2 mM ATP, 2 mM GTP, 0.4% bovine serum albumin (BSA), 20 μg/ml digitonin) and 20 μl cGAMP (12 μg/ml) was added to cells. 18 to 20 hours following stimulation supernatants and cells were harvested. Cells were stained with a fixable viability dye (Invitrogen #65-0865-14) and acquired on a FACSVerse (BD).
For experiments with conditioned media, CD4+ T cell- and MDDC-conditioned media refer to […] filtered conditioned media from cultures of activated CD4+ T cell and MDDC, respectively. CD4+ T cells were pretreated with 100 μl of MDDC-conditioned media or of fresh MDDC culture media, 24 hours prior to cGAMP stimulation. […]

[4] = TCR-activated CD4+ T cells, ADU-S100 2.5 μg, FIG. 1D

shRNA 1: pLKO.1-puro-IRF7sh1, shRNA against IRF7, CCCGAGCTGCACGTTCCTATA [reference compound]
induction of IFNα2 by cGAMP stimulation ([1]; CD4+ T cells expressing only RELA K5R, IRF7 knock-down, FIG. 4C): abolished
IRF7 expression (knock-down) [2]: more potent

Nc1ncnc2c1ncn2[C@@H]1O[C@@H]2COP(=O)([S-])O[C@@H]3[C@H](O)[C@@H](COP([O-])(=S)O[C@H]2[C@H]1O)O[C@H]3n1cnc2c(N)ncnc21.[Na+].[Na+] (stereo partly shown) [ADU-S100, reference compound]
IFN-I induction [1, 4]: no detectable IFN-I
IFN-III induction [1, 4]: induced IFN-III
IFN response to STING ligands ([1]; resting blood CD4+ T cells, soluble ligand 1 μg or 2.5 μg, FIG. 1B): undetectable
IFNλ1 produced by donor-matched MDDC, more than TCR-activated CD4+ T cells ([3]; ADU-S100 2.5 μg, FIG. 1D): 10 fold
IFNβ production ([3]; donor-matched MDDC, ADU-S100 2.5 μg, FIG. 1D): high levels

IFNγ: recombinant type II interferon, 10 ng/ml
IFN-I/III response to cGAMP ([3]; MDDC treated with recombinant IFNγ 10 ng/ml 24 hours before cGAMP, FIG. 1H): sufficient to enhance

B1: cGAS: pTRIP-SFFV-EGFP-FLAG-cGAS over-expression (protein, UniProt Q8N884 1-522, looked up)
Cyclic GMP-AMP synthase: MQPWHGKAMQRASEAGATAPKASARNARGAPMDPTESPAAPEAALPKAGKFGPARKSGSRQKKSAPDTQERPPVRATGARAKKAPQRAQDTQPSDATSAPGAEGLEPPAAREPALSRAGSCRQRGARCSTKPRPPPGPWDVPSPGLPVSAPILVRRDAAPGASKLRAVLEKLKLSRDDISTAAGMVKGVVDHLLLRLKCDSAFRGVGLLNTGSYYEHVKISAPNEFDVMFKLEVPRIQLEEYSNTRAYYFVKFKRNPKENPLSQFLEGEILSASKMLSKFRKIIKEEINDIKDTDVIMKRKRGGSPAVTLLISEKISVDITLALESKSSWPASTQEGLRIQNWLSAKVRKQLRLKPFYLVPKHAKEGNGFQEETWRLSFSHIEKEILNNHGKSKTCCENKEEKCCRKDCLKLMKYLLEQLKERFKDKKHLDKFSSYHVKTAFFHVCTQNPQDSQWDRKDLGLCFDNCVTYFLQCLRTEKLENYFIPEFNLFSSNLIDKRSKEFLTKQIEYERNNEFPVFDEF
modifications: EGFP, FLAG tag
notes: pTRIP-SFFV-EGFP-FLAG-cGAS over-expression
IFN-I/III [1]: remained undetectable

B2: NLS-cGAS: pTRIP-SFFV-EGFP-NLS-FLAG-cGAS, nuclear localization signal cGAS over-expression (protein, UniProt Q8N884 1-522, looked up)
Cyclic GMP-AMP synthase: MQPWHGKAMQRASEAGATAPKASARNARGAPMDPTESPAAPEAALPKAGKFGPARKSGSRQKKSAPDTQERPPVRATGARAKKAPQRAQDTQPSDATSAPGAEGLEPPAAREPALSRAGSCRQRGARCSTKPRPPPGPWDVPSPGLPVSAPILVRRDAAPGASKLRAVLEKLKLSRDDISTAAGMVKGVVDHLLLRLKCDSAFRGVGLLNTGSYYEHVKISAPNEFDVMFKLEVPRIQLEEYSNTRAYYFVKFKRNPKENPLSQFLEGEILSASKMLSKFRKIIKEEINDIKDTDVIMKRKRGGSPAVTLLISEKISVDITLALESKSSWPASTQEGLRIQNWLSAKVRKQLRLKPFYLVPKHAKEGNGFQEETWRLSFSHIEKEILNNHGKSKTCCENKEEKCCRKDCLKLMKYLLEQLKERFKDKKHLDKFSSYHVKTAFFHVCTQNPQDSQWDRKDLGLCFDNCVTYFLQCLRTEKLENYFIPEFNLFSSNLIDKRSKEFLTKQIEYERNNEFPVFDEF
modifications: EGFP, NLS, FLAG tag
notes: pTRIP-SFFV-EGFP-NLS-FLAG-cGAS, nuclear localization signal cGAS over-expression
IFN-I/III [1]: remained undetectable

B3: RELA K310R: RELA with lysine 310 substituted for arginine, expressed from lentivector (protein)
chain: MDELFPLIFPAEPAQASGPYVEIIEQPKQRGMRFRYKCEGRSAGSIPGERSTDTTKTHPTIKINGYTGPGTVRISLVTKDPPHRPHPHELVGKDCRDGFYEAELCPDRCIHSFQNLGIQCVRRRDLEQAISQRIQTNNNPFQVPIEEQRGDYDLNAVRLCFQVTVRDPSGRPLRLPPVLSHPIFDNRAPNTAELKICRVNRNSGSCLGGDEIFLLCDKVQKEDIEVYFTGPGWEARGSFSQADVHRQVAIVFRTPPYADPSLQAPVRVSMQLRRPSDRELSEPMEFQYLPDTDDRHRIEEKRKRTYETFRSIMRRSPFSGPTDPRPPPRRIAVPSRSSASVPKPAPQPYPFTSSLSTINYDEFPTMVFPSGQISQASALAPAPPQVLPQAPAPAPAPAMVSALAQAPAPVPVLAPGPPQAVAPPAPKPTQAGEGTLSEALLQLQFDDEDLGALLGNSTDPAVFTDLASVDNSEFQQLLNQGIPVAPHTTEPMLMEYPEAITRLVTGAQRPPDPAPAPLGAPGLPNGLLSGDEDFSSIADMDFSALLSQISS
IFNλ1 after cGAMP stimulation ([1]; lentivector overexpression in CD4+ T cells, FIG. 2B, 2D, 2F): augmented in the presence of cGAMP
IFNα2 in response to cGAMP ([1]; lentivector overexpression in CD4+ T cells, FIG. 2D, 2F): detected
baseline IFNλ1 expression ([1]; lentivector overexpression in CD4+ T cells, no cGAMP, FIG. 2D, 2F): increased baseline IFNλ1 similar to RELA K5R
